Measured values from patent US20170190705A1, “Compositions and Methods for Inhibiting BMP” (THE BRIGHAM AND WOMAN'S HOSPITAL, INC., priority 2014, published 2017).

Key:
Assay type in all cases: biochemical
PRKD1 = biological target: T1, PRKD1 (Homo sapiens, UniProt Q15139); assay: Kinome profiling PRKD1; conditions: read-out: Inhibitory activity PRKD1; for inhibition at 0.1 µM: 100 nM
T1 sequence (Q15139 1-912): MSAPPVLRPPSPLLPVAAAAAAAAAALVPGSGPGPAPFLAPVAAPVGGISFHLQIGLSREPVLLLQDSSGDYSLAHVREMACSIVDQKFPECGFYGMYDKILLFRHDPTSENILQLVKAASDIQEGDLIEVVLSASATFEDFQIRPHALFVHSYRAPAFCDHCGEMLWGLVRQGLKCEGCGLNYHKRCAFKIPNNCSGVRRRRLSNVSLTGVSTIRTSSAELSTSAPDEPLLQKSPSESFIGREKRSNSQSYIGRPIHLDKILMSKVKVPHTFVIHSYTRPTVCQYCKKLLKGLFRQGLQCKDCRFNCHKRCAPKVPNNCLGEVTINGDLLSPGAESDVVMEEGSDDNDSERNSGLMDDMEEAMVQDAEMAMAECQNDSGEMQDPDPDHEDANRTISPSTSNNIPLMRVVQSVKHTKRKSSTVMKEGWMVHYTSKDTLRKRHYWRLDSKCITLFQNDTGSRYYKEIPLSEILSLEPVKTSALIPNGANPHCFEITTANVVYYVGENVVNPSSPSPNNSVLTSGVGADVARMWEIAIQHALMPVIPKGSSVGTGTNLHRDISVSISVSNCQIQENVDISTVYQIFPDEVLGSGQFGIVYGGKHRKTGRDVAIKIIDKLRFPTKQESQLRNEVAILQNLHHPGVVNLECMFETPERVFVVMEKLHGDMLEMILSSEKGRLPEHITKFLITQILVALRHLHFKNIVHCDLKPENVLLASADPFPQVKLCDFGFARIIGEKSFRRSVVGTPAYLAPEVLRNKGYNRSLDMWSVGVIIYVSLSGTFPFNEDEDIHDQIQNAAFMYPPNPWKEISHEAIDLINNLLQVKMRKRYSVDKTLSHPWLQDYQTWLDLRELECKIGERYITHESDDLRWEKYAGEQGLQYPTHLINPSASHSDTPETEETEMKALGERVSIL
Method: (§1) . The kinome-wide selectivity was determined following the methods previously reported by Mohedas et al., ACS Chem Biol 2013, 8, 1291-1302 and Sanvitale et al., PLoS One 2013, 8, e62721.

GSK3α = GSK3α (Homo sapiens, UniProt P49840); assay: Kinome profiling GSK3α; conditions: read-out: Inhibitory activity GSK3α; for inhibition at 0.1 µM: 100 nM
Method: as §1

PKA = PKA (Homo sapiens, UniProt P17612); assay: Kinome profiling PKA; conditions: read-out: Inhibitory activity PKA; for inhibition at 0.1 µM: 100 nM
Method: as §1

ZAP70 = biological target: T2, ZAP70 (Homo sapiens, UniProt P43403); assay: Kinome profiling ZAP70; conditions: read-out: Inhibitory activity ZAP70; for inhibition at 0.1 µM: 100 nM
T2 sequence (P43403 1-619): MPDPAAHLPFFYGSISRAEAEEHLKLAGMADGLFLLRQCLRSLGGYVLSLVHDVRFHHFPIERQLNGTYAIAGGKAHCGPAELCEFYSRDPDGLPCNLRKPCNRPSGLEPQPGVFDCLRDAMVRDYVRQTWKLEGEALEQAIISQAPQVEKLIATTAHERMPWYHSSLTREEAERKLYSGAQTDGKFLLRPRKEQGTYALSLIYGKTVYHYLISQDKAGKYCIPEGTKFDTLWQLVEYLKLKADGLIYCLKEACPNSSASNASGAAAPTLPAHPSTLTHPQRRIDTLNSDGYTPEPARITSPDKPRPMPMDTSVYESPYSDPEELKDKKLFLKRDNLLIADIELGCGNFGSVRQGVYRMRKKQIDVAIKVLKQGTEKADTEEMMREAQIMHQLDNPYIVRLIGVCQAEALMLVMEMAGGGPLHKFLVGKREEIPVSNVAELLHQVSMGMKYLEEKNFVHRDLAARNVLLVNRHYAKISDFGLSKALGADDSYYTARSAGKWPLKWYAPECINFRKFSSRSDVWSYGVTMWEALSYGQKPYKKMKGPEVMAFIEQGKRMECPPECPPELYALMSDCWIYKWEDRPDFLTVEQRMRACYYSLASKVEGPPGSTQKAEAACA
Method: as §1

TXK = biological target: T3, TXK (Homo sapiens, UniProt P42681); assay: Kinome profiling TXK; conditions: read-out: Inhibitory activity TXK; for inhibition at 0.1 µM: 100 nM
T3 sequence (P42681 1-527): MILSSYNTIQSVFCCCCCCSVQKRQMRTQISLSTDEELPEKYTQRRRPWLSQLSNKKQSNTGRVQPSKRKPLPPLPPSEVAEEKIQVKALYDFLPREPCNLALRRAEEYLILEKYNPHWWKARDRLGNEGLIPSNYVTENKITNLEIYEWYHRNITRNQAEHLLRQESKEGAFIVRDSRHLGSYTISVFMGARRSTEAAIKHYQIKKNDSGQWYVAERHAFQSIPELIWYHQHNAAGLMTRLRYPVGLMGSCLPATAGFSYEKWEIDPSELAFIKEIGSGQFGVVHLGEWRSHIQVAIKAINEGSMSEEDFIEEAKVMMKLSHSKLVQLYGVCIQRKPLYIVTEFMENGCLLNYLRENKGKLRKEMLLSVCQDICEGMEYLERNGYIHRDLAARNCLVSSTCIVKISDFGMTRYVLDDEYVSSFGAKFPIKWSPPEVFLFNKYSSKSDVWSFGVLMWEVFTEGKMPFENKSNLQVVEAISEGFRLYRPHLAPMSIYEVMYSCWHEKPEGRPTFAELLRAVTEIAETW
Method: as §1

GSK3α, sequence (P49840 whole entry): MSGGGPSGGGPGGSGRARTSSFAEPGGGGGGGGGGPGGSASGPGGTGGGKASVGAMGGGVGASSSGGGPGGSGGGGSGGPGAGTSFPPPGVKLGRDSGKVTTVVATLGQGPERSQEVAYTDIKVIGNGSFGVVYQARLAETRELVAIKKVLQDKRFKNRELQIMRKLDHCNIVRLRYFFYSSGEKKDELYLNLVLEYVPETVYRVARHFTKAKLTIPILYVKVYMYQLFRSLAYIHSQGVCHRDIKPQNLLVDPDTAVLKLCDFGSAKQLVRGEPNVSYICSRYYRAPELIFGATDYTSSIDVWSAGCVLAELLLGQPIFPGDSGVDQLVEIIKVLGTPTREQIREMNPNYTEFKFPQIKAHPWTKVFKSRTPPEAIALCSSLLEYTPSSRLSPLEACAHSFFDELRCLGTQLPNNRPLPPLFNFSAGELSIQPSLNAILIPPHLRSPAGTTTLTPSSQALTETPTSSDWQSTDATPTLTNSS

Row | Structure (SMILES) | inhibition at 0.1 µM (PRKD1) [%] | inhibition at 1 µM (PRKD1) [%] | inhibition at 0.1 µM (GSK3α) [%] | inhibition at 1 µM (GSK3α) [%] | inhibition at 0.1 µM (PKA) [%] | inhibition at 1 µM (PKA) [%] | inhibition at 0.1 µM (ZAP70) [%] | inhibition at 1 µM (ZAP70) [%] | inhibition at 0.1 µM (TXK) [%] | inhibition at 1 µM (TXK) [%]
1 | COc1cc(-c2cc(-c3ccc(N4CCNCC4)cc3)cnc2C)cc(OC)c1OC [Compound 10, 1-(4-(6-methyl-5-(3,4,5-trimethoxyphenyl)pyridin-3-yl)phenyl)piperazine] | 4 | 23 | 1 | 1 | 1 | 3 | 4 | 5 | 12 | 14
2 | COc1cc(-c2cc(-c3ccc(N4CCNCC4)cc3)cnc2N)cc(OC)c1OC [Compound 15, 5-(4-(piperazin-1-yl)phenyl)-3-(3,4,5-trimethoxyphenyl)pyridin-2-amine] | 11 | 50 | 1 | 0 | 1 | 2 | 1 | 1 | 21 | 66
